The results in this text go back to PMC12615753, “Glutathione as a taste modulator: molecular mechanisms of interaction with umami and sweet taste receptors” (Food Chemistry: Molecular Sciences, 2025).

Where only a bound is given, the exact number is not on record here.

What is called EC50 is the midpoint of the concentration-response curve.

One assay deals with T1, hTAS1R1 D192E/rTAS1R3 (UniProt Q7RTX1+Q923K1, D192E).
T1 construct: The cDNA coding region of rTAS1R3 was synthesized with optimized-codon usage for human expression; expressed in transfected cells; host or cells: HEK293T/17
The assay can be described thus: cell-based. More on the design: species or system human, rat. The source says:
Chimeric Gα proteins, such as Gα16Gust44, Gα16Gi3 or Gα15i2, are widely used in the functional expression of TAS1R receptors ([Backes et al., 2015]; [Suess et al., 2015]; [Toda et al., 2021], [Toda et al., 2013], [Toda et al., 2018]; [Zhang et al., 2008]). Chimeric Gα15i2 (([Toda et al., 2013]), Supplementary data) was generated by replacing the last five residues of the C-terminal tail of rat Gα15i2 (EINLL) (UniProt number G3V6N8; https://www.uniprot.org/uniprot/) with the counterpart sequence from human GNAI2 (DCGLF) (UniProt number P04899-1) and cloning into the pcDNA3.1/Hygro vector (Invitrogen, Thermo Fisher Scientific, Illkirch, France) between the HindIII and NotI restriction sites, resulting in the plasmid pcDNA3.1-Gα15i2. Chimeric Gα16Gust44 construct have already been reported ([Raliou et al., 2011]). Briefly, Gα16Gust44 was generated by replacing the C-terminal of Gα16 with the C-terminal 44 residues of gustducin. As previously described, hTAS1R1 was amplified from human fungiform papillae cDNA and cloned and inserted into pcDNA3 (Invitrogen), generating pcDNA3-TAS1R1-WT (wild-type) ([Raliou et al., 2011]). […]

The next assay concerns the target T2, hTAS1R1 Q278A/rTAS1R3 (Homo sapiens, UniProt Q7RTX1, Q278A).
T2 construct: expressed in transfected cells; host or cells: HEK293T/17 (ATCC CRL-11268)
T2 sequence (Q7RTX1 21-841 Q278A): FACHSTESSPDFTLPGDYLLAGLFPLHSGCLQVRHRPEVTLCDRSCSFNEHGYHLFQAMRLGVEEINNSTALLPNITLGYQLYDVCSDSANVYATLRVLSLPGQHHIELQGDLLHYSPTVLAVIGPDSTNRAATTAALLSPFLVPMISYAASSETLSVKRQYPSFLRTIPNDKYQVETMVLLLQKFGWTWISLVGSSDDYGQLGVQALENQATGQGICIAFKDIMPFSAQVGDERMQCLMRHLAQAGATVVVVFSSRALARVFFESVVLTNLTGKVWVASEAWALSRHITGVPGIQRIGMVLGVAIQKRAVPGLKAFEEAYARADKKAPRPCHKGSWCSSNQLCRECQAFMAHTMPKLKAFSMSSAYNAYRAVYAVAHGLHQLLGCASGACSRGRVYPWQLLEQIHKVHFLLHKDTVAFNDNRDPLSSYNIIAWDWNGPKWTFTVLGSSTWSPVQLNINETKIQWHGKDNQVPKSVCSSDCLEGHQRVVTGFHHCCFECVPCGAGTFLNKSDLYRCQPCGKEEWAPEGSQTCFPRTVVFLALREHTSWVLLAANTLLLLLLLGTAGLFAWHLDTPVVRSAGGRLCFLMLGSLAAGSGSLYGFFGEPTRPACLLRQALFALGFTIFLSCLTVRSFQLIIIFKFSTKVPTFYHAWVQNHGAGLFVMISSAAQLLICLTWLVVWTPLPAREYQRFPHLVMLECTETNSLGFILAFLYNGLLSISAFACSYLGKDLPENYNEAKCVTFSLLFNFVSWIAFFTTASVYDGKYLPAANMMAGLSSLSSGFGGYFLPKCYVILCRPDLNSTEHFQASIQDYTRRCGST
T2 sequence (Q923K1 21-858 partner): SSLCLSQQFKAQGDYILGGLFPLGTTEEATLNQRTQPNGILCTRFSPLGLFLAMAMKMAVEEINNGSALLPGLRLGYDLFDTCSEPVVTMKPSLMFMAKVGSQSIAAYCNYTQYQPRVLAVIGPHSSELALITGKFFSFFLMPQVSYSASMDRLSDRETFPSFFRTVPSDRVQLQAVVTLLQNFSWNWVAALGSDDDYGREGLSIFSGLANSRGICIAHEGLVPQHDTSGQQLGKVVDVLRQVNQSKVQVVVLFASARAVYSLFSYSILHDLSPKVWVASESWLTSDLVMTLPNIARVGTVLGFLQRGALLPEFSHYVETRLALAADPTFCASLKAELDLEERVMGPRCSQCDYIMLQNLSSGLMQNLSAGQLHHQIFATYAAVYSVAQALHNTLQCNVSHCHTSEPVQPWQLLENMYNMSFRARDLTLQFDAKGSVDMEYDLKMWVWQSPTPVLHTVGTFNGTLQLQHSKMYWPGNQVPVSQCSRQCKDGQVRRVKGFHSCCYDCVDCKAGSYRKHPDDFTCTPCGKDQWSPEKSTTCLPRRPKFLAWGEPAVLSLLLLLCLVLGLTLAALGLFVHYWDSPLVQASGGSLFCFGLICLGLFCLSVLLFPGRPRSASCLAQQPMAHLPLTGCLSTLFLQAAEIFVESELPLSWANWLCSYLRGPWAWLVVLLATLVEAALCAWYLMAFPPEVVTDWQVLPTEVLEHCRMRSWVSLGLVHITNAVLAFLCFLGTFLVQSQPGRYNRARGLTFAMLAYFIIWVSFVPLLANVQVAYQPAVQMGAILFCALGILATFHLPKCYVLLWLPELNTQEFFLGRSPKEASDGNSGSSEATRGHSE
In words: Calcium assay, hTAS1R1 mutant co-expressed with rTAS1R3. Type of assay: cell-based, rat.

Another assay addresses rTAS1R3 (Rattus norvegicus, UniProt Q923K1). The settings on record: GSH alone; Fig. 5C.

T1 sequence (Q7RTX1 21-841 D192E, one chain of several): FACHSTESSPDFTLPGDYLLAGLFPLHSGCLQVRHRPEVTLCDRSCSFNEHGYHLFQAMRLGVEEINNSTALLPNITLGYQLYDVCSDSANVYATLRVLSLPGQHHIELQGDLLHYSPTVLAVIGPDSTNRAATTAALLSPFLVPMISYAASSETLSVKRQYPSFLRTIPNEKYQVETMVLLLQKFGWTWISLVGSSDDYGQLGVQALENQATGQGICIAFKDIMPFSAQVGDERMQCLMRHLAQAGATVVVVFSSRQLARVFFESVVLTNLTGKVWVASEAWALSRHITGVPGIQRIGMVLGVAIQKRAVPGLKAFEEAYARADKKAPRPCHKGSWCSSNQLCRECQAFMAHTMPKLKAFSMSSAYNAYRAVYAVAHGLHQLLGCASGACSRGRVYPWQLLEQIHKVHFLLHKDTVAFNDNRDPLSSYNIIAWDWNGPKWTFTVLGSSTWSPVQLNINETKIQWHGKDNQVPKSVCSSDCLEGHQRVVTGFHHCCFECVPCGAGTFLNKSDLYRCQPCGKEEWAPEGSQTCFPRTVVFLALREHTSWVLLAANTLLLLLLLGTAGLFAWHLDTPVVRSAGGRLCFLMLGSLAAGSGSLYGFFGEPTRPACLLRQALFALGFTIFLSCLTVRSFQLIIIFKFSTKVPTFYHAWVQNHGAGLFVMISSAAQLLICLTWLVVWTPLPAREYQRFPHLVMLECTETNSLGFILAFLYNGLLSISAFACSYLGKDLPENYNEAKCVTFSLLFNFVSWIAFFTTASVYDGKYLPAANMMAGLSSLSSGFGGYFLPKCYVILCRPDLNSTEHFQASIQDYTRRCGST

With `N[C@@H](CCC(=O)N[C@@H](CS)C(=O)NCC(=O)O)C(=O)O` [GSH, γ-L-glutamyl-L-cysteinyl-glycine], the EC50 on hTAS1R1 D192E/rTAS1R3 is > 30 mM. Moreover, the EC50 on hTAS1R1 Q278A/rTAS1R3 is 3.42 ± 0.073 mM. Moreover, at hTAS1R1 Q278A/rTAS1R3 (Q278A), the “effect of the added compound (1 mM) on the response to L-Glu” value is recorded as “synergy was observed” and the “response to the agonist alone, vs WT” value is listed as “significantly increased the initial amplitude”. In addition, on hTAS1R1 Q278A/rTAS1R3 (Q278A, GSH), the “Max ∆F/F0” value turned out to be 1.46 ± 0.01 and the “R1 = mutant EC50/WT EC50” value is listed as 1.4. Besides, the “response of transfected cells” value on rTAS1R3 was “did not respond”.
